Measured values taken from the supplement of paper PMC5412046.
Structures can show the parent of a compound that is named as a salt.

Experiments:
[1] = test system: SB.mhdgc-1; assay: viability at highest tested concentration (MAXR) relative to DMSO; higher = less cytotoxic; conditions: SB.mhdgc-1 (hereditary c.1380delA CDH1 gastric cancer)
In short: (§1)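 Reported here is DMSO-normalised viability, either at the highest concentration or as a trapezoidal area under the curve. Hereditary or sporadic patient-derived gastric cancer cells received compound by pintool at 11 threefold-diluted concentrations and were read with CellTiter-Glo after 48 h.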

[2] = test system: SB.msgc-1; assay: as above; conditions: SB.msgc-1 (sporadic gastric cancer)
In short: as §1

[3] = test system: SB.mhdgc-1; assay: area under the dose-response curve of % viability (trapezoidal, 11 doses) (% viability x log10 concentration); higher = less cytotoxic; conditions: SB.mhdgc-1 (hereditary c.1380delA CDH1 gastric cancer)
In short: as §1

[4] = test system: SB.msgc-1; assay: as above; conditions: SB.msgc-1 (sporadic gastric cancer)
In short: as §1

Compound	viability [1] [%]	viability [2] [%]	area under the dose-response curve [3]	area under the dose-response curve [4]
Cn1cnc2c(F)c(Nc3ccc(Br)cc3Cl)c(C(=O)NOCCO)cc21 [Selumetinib] (top concentration 46.0829 µM)	43.8	24.2	422	455
CC(C)[C@H](O)C(=O)N[C@@H](C)C(=O)N[C@@H]1C(=O)N(C)CCc2ccccc21 [Semagacestat] (top concentration 46.0829 µM)	79.5	90.2	545	518
C=C1/C(=C/C=C2\CCCC3(C)[C@@H]([C@H](C)/C=C/C=C/C(O)(CC)CC)CC[C@@H]23)C[C@@H](O)C[C@@H]1O (stereo partly drawn) [Seocalcitol] (top concentration 46.0829 µM)	31.7	4.45	460	429
COCCn1c2c([n+](Cc3cnccn3)c1C)C(=O)c1ccccc1C2=O [Sepantronium bromide] (top concentration 46.0829 µM)	2.42	0.172	236	183
CC1=C(C)C(=O)C(C(CCCCCC(=O)O)c2ccccc2)=C(C)C1=O (stereo not drawn) [Seratrodast] (top concentration 46.0829 µM)	95.2	98.4	427	451
c1ccc2c(CCNc3ccc(Nc4ccncc4)cc3)c[nH]c2c1 [Serdemetan] (top concentration 46.0829 µM)	7.88	45.2	397	486
c1cc2c(cc1[C@H]1OC[C@H]3[C@@H]1CO[C@@H]3c1ccc3c(c1)OCO3)OCO2 [Sesamin] (top concentration 46.0829 µM)	57.4	80.3	495	499
CC(C)=CC[C@@H](O)C/1=C/C(=O)C2=C(O)C=CC(=C2C1=O)O [Shikonin] (top concentration 46.0829 µM)	2.54	1.71	321	417
CC(C)CC(N(C)C)C1(c2ccc(Cl)cc2)CCC1 (stereo not drawn) [Sibutramine hydrochloride] (top concentration 46.0829 µM)	25.6	36.2	518	478
CCCC1=N[N](C)C2=C1\N=C(/NC2=O)C3=CC(=CC=C3OCC)[S+]([O-])(=O)N4CCN(C)CC4 [Sildenafil citrate] (top concentration 46.0829 µM)	15.2	29.5	463	369
O=C(O)c1ccc2c(c1)nc(Nc1cccc(Cl)c1)c1ccncc12 [Silmitasertib] (top concentration 46.0829 µM)	32.9	28.5	565	491
C[C@@H](Cc1cc2c(c(C(N)=O)c1)N(CCCO)CC2)NCCOc1ccccc1OCC(F)(F)F [Silodosin] (top concentration 46.0829 µM)	119	84.9	516	547
Nc1ccc([S+](=O)([O-])Nc2ncccn2)cc1 [Silver sulfadiazine] (top concentration 46.0829 µM)	54.2	80.3	485	511
COc1cc([C@H]2Oc3cc([C@H]4Oc5cc(O)cc(O)c5C(=O)[C@@H]4O)ccc3O[C@@H]2CO)ccc1O [Silybin] (top concentration 46.0829 µM)	65.9	31.3	511	511
COC/1=C/[C@@H]2[C@@H]3CC4=C(C(=C(OC)C=C4)O)[C@]2(CCN3C)CC1=O [Sinomenine] (top concentration 46.0829 µM)	24.9	37.2	417	380
CN1CCN(c2ncc(-c3cc(Cl)cc(Cl)c3Cl)c(N)n2)CC1 [Sipatrigine] (top concentration 46.0829 µM)	4.71	33.3	461	522
CO[C@H]1C[C@@H]2CC[C@@H](C)[C@@](O)(O2)C(=O)C(=O)N2CCCC[C@H]2C(=O)O[C@H]([C@@H](C)C[C@@H]2CC[C@@H](O)[C@H](OC)C2)CC(=O)[C@H](C)/C=C(\C)[C@@H](O)[C@@H](OC)C(=O)[C@H](C)C[C@H](C)/C=C/C=C/C=C/1C [Sirolimus] (top concentration 46.0829 µM)	67.2	76.1	370	470
N[C@H]2CN(CC12CC1)c3c(F)cc4c(c3Cl)[N@@](C=C(C4=O)C(=O)O)C5C[C@H]5F (stereo partly drawn) [Sitafloxacin hydrate] (top concentration 46.0829 µM)	69.5	85.1	444	468
N[C@@H](CC(=O)N1CCn2c(nnc2C(F)(F)F)C1)Cc1cc(F)c(F)cc1F [Sitagliptin] (top concentration 46.0829 µM)	92.7	99.3	587	527
CC(C)(C)C(=O)Oc1ccc([S+](=O)([O-])Nc2ccccc2C(=O)NCC(=O)O)cc1 [Sivelestat] (top concentration 46.0829 µM)	134	110	563	505
O=C([O-])C(O)Cc1ccc(O)c(O)c1 (stereo not drawn) [Sodium Danshensu] (top concentration 46.0829 µM)	96.8	81.5	573	509
Cc1onc(-c2ccccc2Cl)c1C(=O)N[C@@H]1C(=O)N2[C@@H]1SC(C)(C)[C@@H]2C(=O)[O-] [Sodium cloxacillin] (top concentration 46.0829 µM)	97.4	121	513	606
